Measurements from US6368621B1, “Preparation in particular for use as a medication and/or food supplement” (Peter Greither, priority 1999, dated 2002).

Assay: Determining the Kpart value: distribution between n-octanol and aqueous tris hydrochloride
Type: physicochemical
Conditions: n-octanol / aqueous tris hydrochloride 20 mM, pH 7.4, 20° C.; for distribution coefficient Kpart, metal-free compound: spectrophotometry 220 to 340 nm; for distribution coefficient Kpart, iron complex [FeIII-(compound)3]: spectrophotometry 340 to 640 nm, 3:1 iron(III) complex of the compound
Source text: A further factor which plays a role with the bio-availability of iron is the ability of the iron complexes to penetrate biological membranes. One of the possible indicators for this membrane permeation is Kpart. Kpart describes the ratio between the concentration of the compound in n-octanol to the concentration of the compound in the aqueous phase. Although the iron complex as well as its corresponding metal-free compound should be able to enter through the biomembrane, both should also have a certain degree of water solubility. In the course of the present invention the iron complexes preferably have Kpart values in a region between 0.02 and 6.0, preferred between 0.1 and 4.0 and even more preferred between 0.2 and 1.0. The metal-free complex preferably has Kpart values between 0.05 and 3.0, preferred between 0.1 and 2.0 and even more preferred between 0.2 and 1.0.
Determining the Kpart value:
Determined is the distribution in each case for the iron complex as well as for the corresponding metal-free compound between n-octanol and aqueous tris hydrochloride (20 mM, pH 7.4; tris: 2 amino-2-hydroxymethylpropane-1,3-diol). The concentration of the substances in the respective phase is measured at 20° C. by way of spectrophotometry. 5 ml of a 10^−4M aqueous solution of iron complex and metal-free compound are mixed with 5 ml of n-octanol for one minute. The aqueous n-octanol mixture arising with this is centrifuged at 1,000 G for 30 seconds. The two resulting phases are separated from one another for evaluating the concentration. The metal-free compound is measured in a region of 220 to 340 nanometers whilst for evaluating the concentration of the corresponding iron complex a region between 340 and 640 nanometers is selected. These regions also apply to the 3:1 maltol-iron(III)-complex.

Structure (SMILES)	distribution coefficient Kpart, metal-free compound	distribution coefficient Kpart, iron complex [FeIII-(compound)3]
CCn1cccc(O)c1=O [1-ethyl-3-hydroxypyri-2-one]	0.52	1.06
Cn1cccc(O)c1=O [3-hydroxy-1-methylpyride-2-one]	0.44	0.10
Cc1occc(=O)c1O [3-hydroxy-2-methyl-4 pyrone]	0.66	0.5
